Source: patent US20240401058A1, “METHOD OF REGULATING PULMONARY ARTERY VASCULAR REMODELING” (THE TRUSTEES OF INDIANA UNIVERSITY, priority 2021, published 2024)

What was measured:
Assay type in all cases: cell-based, human
[1] = test system: hPASMC; assay: Cell proliferation rate in hPASMC following EMAP II treatment; conditions: inhibitor pretreatment, EMAP II 24 hours
Method: Cells were treated with EMAP II or vehicle, cells were rinsed at the desired time point, and lysis buffer was applied.

[2] = test system: HDAC; assay: HDAC assay in nuclear fractions of hPASMC; conditions: inhibitor pretreatment, EMAP II 150 minutes
Method: Equal number of hPASMC cells (15000/[…]) were plated and serum starved for overnight. Cells were pretreated with inhibitors and stimulated for the desired time points and collected. Cells were pelleted out and washed with PBS. After the extraction of nuclear proteins, protein concentration was measured. HDAC levels were measured using HDAC activity flurometric kit (Abcam, ab156064) following manufacturer's instructions. Free unbound HDAC levels were normalized against protein levels.

[3] = test system: nuclear S1P; assay: ELISA for S1P quantification in nuclear fractions of hPASMC; conditions: inhibitor pretreatment, EMAP II 15 or 150 minutes
Method: Equal number of hPASMC cells (15000/[…]) were plated and serum starved for overnight. Cells were pretreated with inhibitors if needed and stimulated for in a series of time points and collected the cells. Cells were pelleted out and washed with PBS. After the extraction of nuclear proteins, protein concentration was measured. S1P levels were measured using S1P ELISA kit (MyBioSource, MBS069092) following manufacturer's instructions. S1P levels were normalized against protein levels.

[4] = test system: iPAH: PASMCs; assay: Cell proliferation rate of iPAH: PASMCs; conditions: iSPHK2 pretreatment 24 hours
Method: All studies involving human lung tissues and cells were conducted according to the Institutional review board of Indiana University School of Medicine. Deidentified archived tissues and pulmonary arterial smooth muscle cells (PASMCs) obtained from the Pulmonary Hypertension Breakthrough Initiative (PHBI) biorepository from patients with Idiopathic Pulmonary Arterial Hypertension (iPAH: Group 1 PH) at time of lung transplantation and patients without PH that were failed donor lungs (FDL).
Primary human PASMCs (hPASMCs), pulmonary microvascular endothelial cells (hPMVECs) purchased from Lonza (Walkersville, MD) and iPAH: PASMCs were cultured in complete growth medium or conditioned media in a humidified atmosphere or 1% O2 with 5% CO2 at 37° C. For all studies, passages 5-10 were used for hPASMCs and hPMVECs.

[5] = test system: Ac-H3K9; assay: CUT&RUN with acetylated H3K9 antibody in hPASMC; conditions: for EMAP II promoted hyperacetylation of H3K9 (Ac-H3K9 peaks): EMAP II 2-3 hours
Method: Cleavage Under Targets and Release Using Nuclease (CUT&RUN) was performed with hPASMC using CUTANA® protocol v1.6. For each condition, nuclei from two biological replicates were extracted by incubating cells on ice for 10 min in Nuclei Extraction buffer (NE: 20 mM HEPES-KOH, pH 7.9; 10 mM KCl; 0.1% Triton X-100; 20% Glycerol; 0.5 mM spermidine; 1× complete protease inhibitor (GoldBio), collecting by centrifugation (600 g, 3 min, 4° C.), discarding the supernatant, and resuspending at [100 μl/500K nuclei] sample in NE buffer. For each target 500K nuclei were immobilized onto Concanavalin-A beads (EpiCypher #21-1401) and incubated overnight (4° C. with gentle rocking) with 0.5 μg of antibody IgG (negative control), trimethylated H3K4 (positive control), Ac-H3K9 (all validated to SNAP-ChIP nucleosome standards). CUT&RUN enriched DNA was purified and used to prepare sequencing libraries with the Ultra II DNA Library Prep kit (New England Biolabs #E7645S). Libraries were sequenced on the Illumina NextSeq 550, obtaining ˜8 million paired end reads on average. The CUT&RUN paired reads were used for quality control using FASTQ Groomer (Galaxy Version 1.1.5) and paired ends were aligned against the GRCh38/hg38 reference genome assembly for human using bowtie2 (Galaxy Version 2.4.2+galaxy0). After quality-based filtering with SAM or BAM tools (Galaxy Version 1.8+galaxy1), MACS2 (Galaxy Version 2.1.1.20160309.6) was applied for CUT&RUN peak calling of Ac-H3K9 against the IgG control with genome size of 2.7e9 and then, DiffBind (Galaxy Version 2.10.0) was used to analyze the differential binding sites between the control and rEMAP II treated samples.

[6] = test system: pSPHK2 in nuclear fractions of hPASMC; assay: Nuclear pSPHK2 in hPASMC after EMAP II treatment (immunoblot of nuclear fractions, immunofluorescence); conditions: inhibitor pretreatment, EMAP II 150 minutes
Method: Primary human pulmonary artery smooth muscle cells (hPASMC) purchased from Lonza (Walkersville, MD) were cultured in complete growth medium containing smooth muscle growth media-2 (SmGM-2) with 10% FBS and growth factors provided as a kit by the supplier (Lonza, (Walkersville, MD). Cells were cultured in a humidified atmosphere with 5% CO2 at 37° C. For all studies, passages 5-10 were used for hPASMCs. For treatment studies, subconfluent cells plated in multi-well plates were serum starved and if required, pretreated with inhibitors before stimulation with 2 μg/mL recombinant EMAP II. All the controls were handled similar to the test samples. Cells were treated with EMAP II or vehicle, cells were rinsed at the desired time point, and lysis buffer was applied.
After appropriate treatments, protein lysates were prepared by using RIPA buffer (for cells) or home-made lysis buffer (tissue) supplemented with phosphatase and protease inhibitors (Thermo Fisher Scientific). Alpha-tubulin or Vinculin was used as a loading control. For nuclear and cytoplasmic fractionation, NE-PER kit from Thermo Fischer Scientific was used. Western blots were performed according to standard methods and quantified using densitometry using Image Studio Lite software from LI-COR Biosciences. […]

In the case of Cc1cc(CS(=O)(=O)c2ccccc2)cc(OCc2ccc(CN3CCCC3CO)cc2)c1 (stereo not shown) [SPHK1 inhibitor, PF643], the “EMAP II mediated cell proliferation” value [1] is reported as “blocked EMAPII mediated proliferation”.
For O=C(NCc1ccncc1)C12CC3CC(C1)CC(c1ccc(Cl)cc1)(C3)C2 [SPHK2 inhibitor, ABC294640], the HDAC activity [2] was “rescued decreased HDAC activity”, the HDAC activity ([2]; listed as iSPHK2) was “rescued the loss of HDAC activity” and the HDAC activity ([2]; listed as iSPHK2 inhibitor) was “rescued the loss of HDAC activity”. The “EMAP II generated nuclear S1P” value [3] was “suppressed EMAP II generated nuclear S1P expression”, the “EMAP II generated nuclear S1P” value ([3]; listed as iSPHK2) was “suppressed EMAPII generated nuclear S1P expression” and the proliferation rate [4] was “restoring regular proliferation rates in iPAH: PASMCs”. The “differentially acetylated sites by EMAPII that are altered by iSPHK2 pretreatment” value [5] was 5554 sites, the “differentially acetylated upstream sites by EMAPII that are also altered by iSPHK2 pretreatment” value [5] was 755 sites and the “EMAP II promoted hyperacetylation of H3K9 (Ac-H3K9 peaks)” value ([5]; inhibitor pretreatment) was “partially diminished EMAP II promoted hyperacetylation of H3K9”. For the same molecule, the “EMAP II promoted hyperacetylation of H3K9 (Ac-H3K9 peaks)” value ([5]; inhibitor pretreatment, listed as iSPHK2) was “partially diminished EMAPII promoted hyperacetylation of H3K9”, the “level of Ac-H3K9 regions in KLF4” value ([5]; inhibitor pretreatment, EMAPII treated) was “rescued the level of Ac-H3K9 regions in EMAPII treated cells” and the “EMAP II induced nuclear activation of SPHK2 (nuclear pSPHK2/lamin B)” value [6] was “ablated the EMAP II induced nuclear activation of SPHK2”. For the same molecule, the “EMAP II induced nuclear activation of SPHK2 (nuclear pSPHK2/lamin B)” value ([6]; listed as iSPHK2) was “ablated the EMAPII induced nuclear activation of SPHK2”, the “EMAP II mediated cell proliferation” value [1] was “blocked EMAPII mediated proliferation” and the “EMAP II mediated cell proliferation” value ([1]; listed as iSPHK2) was “rescued”.
